Reference: patent US20200166517A1, “Screening Method for Identification of Neuroprotective Compounds” (Temple University-Of The Commonwealth System of Higher …, priority 2017, published 2020)
“Also recorded” adds a separate entry of the source.

What was measured:
Format in all cases: cell-based
HEK293T cells = assay: mCherry-NLS×3 expression and DAPI nuclear signal (toxicity / non-specific effect readout of the screen); conditions: HEK293T co-transfected with DLK-GFP plus mCherry-NLS×3
Procedure: (§1) FIG. 7A depicts HEK293T cells co-transfected with DLK-GFP plus mCherry-NLS×3 and then treated with 2BP or vehicle were fixed to detect GFP, mCherry and the nuclear marker DAPI. […] FIG. 7B depicts design of the high-throughput screen for compounds that inhibit DLK-GFP puncta formation. FIG. 7C depicts compounds from the Prestwick Chemical Library™, which were spotted onto 96 well plates at 10 mM per compound in DMSO and diluted in DMEM prior to adding to transfected cells in duplicate at a final concentration of 10 micromolar (similar to the flow chart in FIG. 7B). 16 h later, cells were fixed in 4% PFA and stained with DAPI. High-content imaging was performed using an ImageXPress Image Analysis ‘TransFluor’ and Multi-wavelength scoring (MWS) modules. Data are plotted as total number of puncta (TransFluor Module) per total NLS (MWS module) for each compound. Drugs that decreased the nuclear NLS and/or DAPI markers below 3 times the […] were excluded due to likely toxicity or non-specific effects (plotted in grey). ‘Hits’ were drugs characterised as decreasing all ‘puncta’ readouts by more than 3 times the SD and included in 2 replicates.

[1] = tested on: JNK3 activation by wtDLK-GFP; assay: JNK3 activation by wtDLK-GFP in cotransfected HEK293T cells, detected by phosphoJNK antibody; conditions: HEK293T cells expressing myc-JNK3 plus wtDLK-GFP; vs EtOH vehicle
Procedure: FIG. 2A: HEK293T cells expressing myc-JNK3 plus wtDLK-GFP were treated with the palmitoylation inhibitor 2-Bromopalmitate (2-Br) or EtOH (vehicle). […] FIG. 2B: HEK293T cells were transfected with myc-JNK3 plus either wtDLK-GFP or a DLK palmitoyl site mutant (DLK-CS-GFP). Only wtDLK-GFP activates JNK3, as detected by phosphoJNK antibody.

DLK-GFP [2] = molecular target: T1, DLK-GFP (Homo sapiens, UniProt Q12852); assay: Acyl-Biotin Exchange (ABE) palmitoylation assay, DLK-GFP in HEK293T cells
T1 sequence (Q12852 1-892 isoform Q12852-2): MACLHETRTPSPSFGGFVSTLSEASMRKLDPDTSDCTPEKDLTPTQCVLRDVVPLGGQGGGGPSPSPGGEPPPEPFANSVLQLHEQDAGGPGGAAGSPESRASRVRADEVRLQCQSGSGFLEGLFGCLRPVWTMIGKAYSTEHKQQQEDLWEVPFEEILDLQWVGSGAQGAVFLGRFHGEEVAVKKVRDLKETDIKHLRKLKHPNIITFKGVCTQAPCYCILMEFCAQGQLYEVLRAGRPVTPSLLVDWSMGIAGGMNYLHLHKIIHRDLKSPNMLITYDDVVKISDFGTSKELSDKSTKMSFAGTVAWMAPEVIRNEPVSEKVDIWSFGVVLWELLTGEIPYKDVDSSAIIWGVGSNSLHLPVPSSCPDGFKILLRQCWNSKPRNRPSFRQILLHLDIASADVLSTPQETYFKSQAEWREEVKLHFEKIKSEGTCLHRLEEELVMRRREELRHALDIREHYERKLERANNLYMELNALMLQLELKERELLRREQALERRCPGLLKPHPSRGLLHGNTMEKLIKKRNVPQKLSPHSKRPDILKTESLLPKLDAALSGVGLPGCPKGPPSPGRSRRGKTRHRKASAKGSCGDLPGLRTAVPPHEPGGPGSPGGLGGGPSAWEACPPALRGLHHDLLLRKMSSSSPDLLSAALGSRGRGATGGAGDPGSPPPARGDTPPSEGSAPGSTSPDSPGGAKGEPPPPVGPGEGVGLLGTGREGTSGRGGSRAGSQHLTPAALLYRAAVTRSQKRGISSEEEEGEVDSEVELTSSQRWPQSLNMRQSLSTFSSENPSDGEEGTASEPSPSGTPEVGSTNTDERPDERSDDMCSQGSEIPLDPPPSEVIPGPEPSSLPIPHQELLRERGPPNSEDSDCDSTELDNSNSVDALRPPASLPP
Source text: FIG. 4 depicts an orthogonal assay to confirm mechanism of action (MOA) of HTS Hits. HEK293T cells were transfected with wt-DLK-GFP or DLK-CS-GFP and palmitoyl-proteins were isolated by Acyl-Biotin Exchange (ABE). Palmitoyl-DLK is robustly detected in ABE fractions but no ABE signal is seen from cells treated with 2-Br, or if DLK's palmitoyl-site is mutated. DLK expressed similarly in all conditions. (Holland, 2016)
(§2) FIG. 8A depicts an experiment in which HEK293T cells transiently transfected with DLK-GFP and mCherry-NLS and subsequently incubated with the indicated concentrations of Ketoconazole or 20 μM 2BP 2 hours post-transfection for 16-18 h. Cells were fixed and stained with DAPI. Scale bar represents 50 μm. FIG. 8B depicts quantified DLK puncta/NLS and nuclear counts (DAPI) from cells transfected as in FIG. 8A and treated with the indicated concentrations of ketoconazole. FIG. 8C depicts an experiment in which transiently transfected HEK293T cells were prepared as in FIG. 8A and palmitoylation (HAM+) was detected using the ABE assay. HAM- sample was generated from an equal fraction of all conditions combined.
HEK293T cells were transiently transfected with FIG. 9A) DLK-GFP, FIG. 9B) GAP43-Myc, FIG. 9C) and untagged PSD95 and incubated with 20 μM 2BP, or with 2.5 μM or 5 μM ketoconazole 2 h post-transfection for 16-18 h. Palmitoylation was detected using the ABE assay (left) and quantified from n=4 determinations per condition (right). HAM- includes an equal fraction of all conditions combined. […]
(§3) If changes in DLK localization observed by high-content imaging are indeed due to altered DLK palmitoylation then this should also be reflected in biochemical assays of DLK palmitoylation levels. Palmitoylation of numerous proteins, including DLK, has been previously monitored using a non-radioactive palmitoylation assay, Acyl-Biotin Exchange (ABE) (Holland, 2016; Thomas, 2012). […] WtDLK-GFP was robustly detected in ABE fractions but was absent from controls in which the essential ABE reagent hydroxylamine (NH2OH) was omitted (FIG. 4). […]

DLK-GFP [3] = molecular target: T1, DLK-GFP; assay: DLK-GFP puncta / membrane localization in transfected HEK293T cells (high-content imaging, ImageXpress)
Procedure: FIG. 3A: HEK293T cells were transfected with wtDLK-GFP or DLK-CS-GFP and treated 4 h later with 2-Br or vehicle. Top: Live images of GFP fluorescence, acquired 8 h post-transfection. […] FIG. 3B: A subset of cells from FIG. 3A were fixed and immunostained with anti-GFP antibody. Images of GFP fluorescence (n=5 per condition) were analyzed by ImageXpress software. Palmitoylation-dependent differences in number of DLK-GFP puncta are readily detectable.
FIG. 6A depicts HEK293T cells transiently expressing DLK-GFP, fixed and immunostained with antibodies to detect GFP and the Golgi marker GM130. FIG. 6B depicts HEK293T cells, transfected as in FIG. 6A to express either wild type DLK-GFP (DLK-GFP) or a DLK palmitoylation site mutant (C127S-DLK-GFP). […] FIG. 6C depicts results from an experiment in which HEK293T cells were seeded into 12 wells of a 96-well plate and transfected with DLK-GFP and then treated with 2BP or vehicle (6 wells per condition). Cells were fixed in PFA and imaged using an ImageXpress High Content Imaging system to detect GFP signal. Assay quality was determined by calculating the z-prime (z′) for 6 determinations for each of the indicated conditions (z′=S/R, S=[(Mean of Vehicle treated−3×SD)−(Mean of 2BP−3×SD)], R=Vehicle Mean−2BP mean).
as §1, §2
In transfected HEK 293T cells, GFP-tagged wild type DLK (wtDLK-GFP) clearly localizes to intracellular membranes (FIG. 3, top). These membranes are distinct from the vesicles reported in neurons (likely due to different trafficking of DLK in non-neuronal cells) and instead overlap with Golgi markers, likely because many mammalian palmitoyl acyltransferases (PATs) localize to the Golgi (Levy, 2011; Ohno, 2006). […] In identically thresholded images, wtDLK-GFP puncta could be readily observed, that were absent in the 2-Br-treated and DLK-CS-GFP images (FIG. 3A, bottom). It was thus reasoned that this palmitoylation-dependent change in DLK localization should be quantifiable using high-content imaging software. […] High-content imaging detection is thus well suited to identify novel pharmacological inhibitors of DLK palmitoylation.

PSD95 = assay: Acyl-Biotin Exchange (ABE) palmitoylation assay, untagged PSD95 in HEK293T cells; conditions: 2.5 μM or 5 μM, 2 h post-transfection for 16-18 h, n=4; ANOVA p=0.0158
Procedure: (§4) HEK293T cells were transiently transfected with FIG. 9A) DLK-GFP, FIG. 9B) GAP43-Myc, FIG. 9C) and untagged PSD95 and incubated with 20 μM 2BP, or with 2.5 μM or 5 μM ketoconazole 2 h post-transfection for 16-18 h. Palmitoylation was detected using the ABE assay (left) and quantified from n=4 determinations per condition (right). HAM- includes an equal fraction of all conditions combined. […] One-way ANOVA, Kruskal-Wallis post-hoc analysis; FIG. 9A) ANOVA p=0.0214, h=7.692, FIG. 9B) ANOVA not significant, FIG. 9C) ANOVA p=0.0158, h=8.290. Error bars represent SEM.
as §3, with “2012). ABE uses an exchange of thioester-linked acyl modifications (i.e. palmitoylation), for biotin, with the resultant biotinylated proteins being affinity-purified from cell lysates using neutravidin-conjugated beads.” for “2012).”

GAP43-Myc = assay: Acyl-Biotin Exchange (ABE) palmitoylation assay, GAP43-Myc in HEK293T cells; conditions: 2.5 μM or 5 μM, 2 h post-transfection for 16-18 h, n=4; ANOVA not significant
Procedure: as §4
as §3, with “2012). ABE uses an exchange of thioester-linked acyl modifications (i.e. palmitoylation), for biotin, with the resultant biotinylated proteins being affinity-purified from cell lysates using neutravidin-conjugated beads.” for “2012).”

phospho-cJun = assay: DLK-mediated phospho-cJun activation after NGF withdrawal in DRG neurons (Western blot); conditions: DRG neurons DIV 7, 2.5 μM overnight pretreatment, 2.5 h NGF withdrawal; Bonferroni post-test p<0.01
Procedure: FIG. 10A depicts an experiment in which dorsal Root Ganglion (DRG) neurons were pretreated at 7 Days in vitro (DIV 7) with 2.5 μM Ketoconazole overnight or 20 μM 2BP for 2 h prior to a 2.5 h NGF withdrawal in presence of the indicated compound. Cells were lysed in SDS-PAGE loading buffer and levels of endogenous DLK, phospho-cJun and tubulin were detected by Western blot.
FIG. 10B depicts quantification of phospho-cJun normalised to -NGF vehicle treated cells. Two-way ANOVA indicates significant effects of interaction (p=0.0071), NGF (p=0.0026) and Ketoconazole (p=0.0001). The effect of Ketoconazole in DRGs undergoing NGF withdrawal was also significant as determined by the Bonferroni post-test (p<0.01). Error bars represent SEM.

Row | DLK-GFP puncta (DLK puncta/NLS), dose response (DLK-GFP [3]; HEK293T, DLK-GFP and mCherry-NLS, compound added 2 hours post-transfection for 16-18 h) | SMILES | mCherry-NLS×3 expression and DAPI signal (HEK293T cells) | JNK3 activation (phosphorylation) by wtDLK-GFP [1] | palmitoyl-DLK signal in ABE fractions (DLK-GFP [2]; HEK293T transfected with wtDLK-GFP) | DLK-GFP puncta (DLK-GFP [3]; HEK293T co-transfected with DLK-GFP plus mCherry-NLS×3) | Golgi-associated clusters of DLK-GFP (DLK-GFP [3]; HEK293T transiently expressing DLK-GFP) | DLK localization quantified by ImageXpress 'TransFluor' module (number of DLK-GFP puncta) (DLK-GFP [3]; HEK293T, fixed, anti-GFP immunostained, n=5 images per condition) | membrane-localized wtDLK-GFP puncta / DLK-GFP membrane association (DLK-GFP [3]; HEK293T, treated 4 h post-transfection, imaged 8 h post-transfection, thresholded images) | palmitoylation of PSD-95 (ABE) (PSD95) | palmitoylation of GAP-43 (ABE) (GAP43-Myc) | palmitoylation of DLK (ABE) (DLK-GFP [2]; 2.5 μM or 5 μM, 2 h post-transfection for 16-18 h, n=4, ANOVA p=0.0214) | DLK palmitoylation (ABE, HAM+), dose response (DLK-GFP [2]; HEK293T, compound 2 hours post-transfection for 16-18 h) | phospho-cJun normalised to -NGF vehicle treated cells (phospho-cJun) | inhibition of DLK-GFP puncta formation (puncta per total NLS), rank in Prestwick Chemical Library screen (DLK-GFP [3]; 10 micromolar final, duplicate, 16 h, 96-well)
1 |  | CCCCCCCCCCCCCCC(Br)C(=O)O (centres unmarked) [2-Br, 2-Bromopalmitate] | without affecting mCherry-NLS×3 expression or DAPI signal | blocks JNK3 activation; also recorded: prevented DLK-dependent phosphorylation of JNK3 | no ABE signal | reduces DLK-GFP puncta | diffuses the Golgi-associated clusters of DLK-GFP | dramatically alters DLK localization | completely disrupted DLK-GFP membrane association; also recorded: essentially absent |  |  |  |  |  | 
2 | decreases DLK-GFP puncta | CC(=O)N1CCN(c2ccc(OCC3COC(Cn4ccnc4)(c4ccc(Cl)cc4Cl)O3)cc2)CC1 (centres unmarked) [Ketoconazole] |  |  |  |  |  |  |  | significantly reduces palmitoylation of DLK and PSD-95 | does not affect palmitoylation of GAP-43 | significantly reduces palmitoylation of DLK | inhibits DLK palmitoylation in a dose dependent manner | significantly decreases DLK-mediated phospho-cJun activation; also recorded: significant | most potent compound to inhibit DLK-GFP puncta formation
